Test results published in US12037583B2, “Compositions and methods for immunooncology” (Novartis AG, priority 2015, dated 2024).

Tests used:
[1] = tested on: potential off-target genomic sites; test: Off-target editing assessment by oligo insertion assay in Cas9-expressing HEK293 cells; format: cell-based, human; conditions: dual guide RNA, FIG. 63, 64
Description: A total of 34 guideRNAs (dual guide RNAs comprising the indicated targeting domain, modified or unmodified, as indicated) targeting B2M (5), TRAC (9), TRBC2 (2), PDCD1 (8), FKBP1A (5), or CIITA (5) were screened in the Cas9-expressing HEK293 cells described above in Example 1, and the results are plotted in FIG. 63 and FIG. 64.

[2] = tested on: PDCD1; test: NGS editing of PDCD1 by dgRNA in HEK cells stably expressing Cas9; format: cell-based, human; conditions: at least 3 experiments;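 note: dgRNA lipofected into Cas9-expressing HEK cells, lysed after 24 h, target amplicon sequenced, editing = reads carrying insertions or deletions as percent of all reads including wild type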
Description: Transfection of Cas9GFP-expressing HEK293 cells (HEK-293_Cas9GFP) was used for primary screening of target specific crRNAs. […] Selected crRNAs were chemically synthesized and delivered in a 96 well format. HEK-293-Cas9GFP cells were transfected with target crRNAs comprising a flagpole region of SEQ ID NO: 6607 in a 1:1 ratio with stock trRNA of SEQ ID NO: 6660. The transfection was mediated using lipofection technology according to manufacturer's protocol (DharmaFECT Duo, GE LifeSciences; or RNAiMax, LifeTechnologies). Transfected cells were lysed 24 h following lipofection and editing (e.g., cleavage) was detected within lysates with the T7E1 assay and/or next generation sequencing (NGS; below).
PCR primers were first designed around the target site, and the genomic area of interest PCR amplified. Additional PCR was performed according to manufacturer's protocols (Illumina) to add the necessary chemistry for sequencing. The amplicons were then sequenced on an Illumina MiSeq instrument. The reads were then aligned to the human reference genome (e.g., hg38) after eliminating those having low quality scores. From the resulting files containing the reads mapped to the reference genome (BAM files), reads which overlap the target region of interest were selected and the number of wild type reads versus the number of reads which contain an insertion or deletion was calculated. The editing percentage was then defined as the total number of reads with insertions or deletions over the total number of reads, including wild type. To determine the pattern of insertions and/or deletions that resulted from the edit, the aligned reads with indels were selected and the number of a reads with a given indel were summed.
Editing of CRISPR systems containing dgRNA molecules comprising targeting domains to sequences of PDCD1 were tested for editing in HEK (gRNA delivered to cells stably expressing Cas9) and CD3+ T cells (gRNA and Cas9 delivered as RNP) according to the methods described herein.
All mean editing % are as measured by NGS and are based on at least 3 experiments.

[3] = tested on: FKBP1A; test: S6 phosphorylation by flow cytometry with or without RAD001 after FKBP1A editing; format: cell-based, human; conditions: primary T cells; 2.5 nM RAD001 3 hours; FIG. 54
Description: After thawing, isolated human T cells were activated with CD3/CD28 beads for 3 days at a bead to cell ratio of 3:1. Cells were then electroporated with RNP containing dual guide RNA molecules (as indicated, as described above in these examples), and Cas9 protein using the Neon instrument with the 100 ul tip kit. RNPs were prepared in the following manner. crRNA and trRNA (10 ul of each at 100 uM) were heated in separate tubes to 95 degrees C. for two minutes and then cooled for 5 minutes at room temperature. […]
After electroporation, cells were then transferred into a 6-well plate with 2 ml of T cell media with beads at a 3:1 bead to cell ratio. […] The phosphorylation of S6 was detected by flow cytometry, and was used as an indication of immunosuppressing by RAD001. […] Cells were then washed twice with PBS and analyzed by flow cytometry on the Becton Dickenson LSR Fortessa using FloJo-V10 software.
After electroporation cells were treated with 2.5 nM RAD001 (upper panel) or left untreated (lower panel) and the impact on mTOR pathway inhibition was evaluated by analyzing S6 phosphorylation (pS6) by flow cytometry. […] Positive staining for pS6 (shown in the gating trace) was determined by gating above the fluorescence level seen in a control stained with isotype antibody (not shown). Quantitation of S6 phosphorylation from the flow cytometry data is shown in the graph in the lower panel. […]

[4] = tested on: CD3 delta and CD3 gamma; test: Loss of surface CD3 by flow cytometry in primary human CD3+ T cells after CD3 delta / CD3 gamma RNP; format: cell-based; conditions: day 7 post-electroporation; anti-CD3 OKT3
Description: Editing of CRISPR systems containing dgRNA molecules comprising targeting domains to sequences of CD3 delta and CD3 gamma were tested for editing in primary CD3+ T cells (gRNA/Cas9 RNP delivered by electroporation) according to the methods described herein. Surface expression of CD3 after editing was assayed by flow cytometry. Briefly, edited CD3+ cells were stained with antibodies against CD3 (OKT3, BioLegend) at day 7 post-electroporation. Expression of CD3 in live cells (identified using 7AAD exclusion) relative to the un-edited controls was used to determine frequency of RNP editing. The results are reported in FIG. 65 and FIG. 66, which include flow cytometry data showing the % editing in primary human CD3+ T cells as measured by loss of surface expression of CD3.

Substance: CR000902: dgRNA targeting domain to PDCD1 (guide GCCCACGACACCAACCACCA; targeting domain within dual guide RNA, chemistry not given here, further chemistry not given here; listed as Homo sapiens)
- off-target editing in oligo insertion assay, in words [1]: no off-target editing was detected
- HEK (NGS) % Editing Mean [2]: 72%

Substance: CR002122: dgRNA targeting domain to FKBP1A (guide GUUCUUUUCACAGAUGAGUG; targeting domain within dual guide RNA, chemistry not given here, further chemistry not given here; listed as Homo sapiens)
- S6 phosphorylation under RAD001, in words [3]: refractory to the inhibitory effects of the rapalog RAD001

Substance: CR005334: dgRNA targeting domain to CD3 delta or CD3 gamma (guide ACUUCGAUAAUGAACUUGCA; chemistry not given here; listed as Homo sapiens)
- % loss of CD3 [4]: 98%
